The values that follow come from article PMC4710522, “A Novel Triazolopyridine-Based Spleen Tyrosine Kinase Inhibitor That Arrests Joint Inflammation” (PLoS ONE, 2016).

For data set [1], the system named is Tel-Syk expressing BaF3 cells. Kind of data set: Tel-Syk BaF3 viability assay (growth factor-independent growth). The data set is classed as cell-based, murine. As to conditions: Mus musculus; Tel-Syk BaF3, absence of IL-3. The procedure: HEK293 T-REx™ (Life Technologies, Grand Island, NY) stably transfected with human TEL-Syk (cloned as described prior section DNA constructs) were plated on black poly-D-lysine coated 96-well plates (BD Biosciences, San Diego, CA) in culture media containing tetracycline-free fetal bovine serum (Clontech, MountainView, CA) for 16 hours in a tissue culture incubator. Tel-Syk expression was induced for 6 hours in fresh growth media containing 1 μg/ml tetracycline (Sigma Chemicals, St. Louis, MO). Plates were preincubated with CC-509 for 90 minutes, fixed immediately with 4% formaldehyde in 1X PBS for 20 min at room temperature, and washed/permeabilized 5-times with PBS containing 0.1% Triton X-100. Plates were blocked with Odyssey Blocking Buffer for 90 minutes at room temperature and incubated overnight at 4°C on a rotating platform with rabbit phospho-Syk (1:1000) and mouse V5 (1:2500) primary antibodies diluted in Odyssey Blocking Buffer. […] Viability of BaF/3 cells expressing Tel-Syk grown in the absence of murine IL-3 was measured using Cell-Titer Glo reagent (Promega, Madison, WI), as described by supplier.

The next data set deals with T1, cSRC_h (Homo sapiens, UniProt P12931).
T1 construct: purchased Life Technologies (Invitrogen) SelectScreen, Z'-LYTE / Adapta
T1 sequence (P12931 whole entry): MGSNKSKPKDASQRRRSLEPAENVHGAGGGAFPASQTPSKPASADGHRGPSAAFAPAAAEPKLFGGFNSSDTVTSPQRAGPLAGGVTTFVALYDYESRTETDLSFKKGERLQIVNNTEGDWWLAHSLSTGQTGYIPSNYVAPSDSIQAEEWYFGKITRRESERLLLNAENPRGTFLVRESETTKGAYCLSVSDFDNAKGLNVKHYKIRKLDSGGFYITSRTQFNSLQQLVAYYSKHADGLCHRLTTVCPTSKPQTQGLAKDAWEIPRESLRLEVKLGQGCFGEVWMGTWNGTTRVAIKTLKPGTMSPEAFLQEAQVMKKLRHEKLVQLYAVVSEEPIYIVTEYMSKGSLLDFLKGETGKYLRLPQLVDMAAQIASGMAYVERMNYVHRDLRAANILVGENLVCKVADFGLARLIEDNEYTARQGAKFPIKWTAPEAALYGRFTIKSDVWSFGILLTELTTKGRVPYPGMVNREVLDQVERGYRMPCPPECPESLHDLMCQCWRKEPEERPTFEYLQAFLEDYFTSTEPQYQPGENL
As to the kind of experiment: SelectScreen kinase assay. As to conditions: KM ATP, read-out: % control. The class given is biochemical.

The subject of data set [2] is proinflammatory analytes in paw tissue. As to the kind of experiment: inflammatory cytokines measured in the paw, rat CIA. The data set is classed as in vivo. The procedure: Following the last administration of CC-509, paw samples were collected and processed for cytokine and chemokine analysis (Aushon Biosciences, Billerica, MA). Briefly paws were snap-frozen and pulverized in liquid nitrogen followed by addition of cell signal lysis buffer in the presence of protease and phosphatase inhibitors (Sigma Chemicals, St. Louis, MO). Samples were homogenized on high speed for 30 seconds, incubated on ice for 20 minutes then sonicated at high intensity for 1 minute. Samples were spun at high speed and supernatants were collected for cytokine analysis.

The target in a further data set is T2, ZIPK_h (Homo sapiens, UniProt O43293).
T2 construct: purchased Life Technologies (Invitrogen) SelectScreen, Z'-LYTE / Adapta
T2 sequence (O43293 whole entry): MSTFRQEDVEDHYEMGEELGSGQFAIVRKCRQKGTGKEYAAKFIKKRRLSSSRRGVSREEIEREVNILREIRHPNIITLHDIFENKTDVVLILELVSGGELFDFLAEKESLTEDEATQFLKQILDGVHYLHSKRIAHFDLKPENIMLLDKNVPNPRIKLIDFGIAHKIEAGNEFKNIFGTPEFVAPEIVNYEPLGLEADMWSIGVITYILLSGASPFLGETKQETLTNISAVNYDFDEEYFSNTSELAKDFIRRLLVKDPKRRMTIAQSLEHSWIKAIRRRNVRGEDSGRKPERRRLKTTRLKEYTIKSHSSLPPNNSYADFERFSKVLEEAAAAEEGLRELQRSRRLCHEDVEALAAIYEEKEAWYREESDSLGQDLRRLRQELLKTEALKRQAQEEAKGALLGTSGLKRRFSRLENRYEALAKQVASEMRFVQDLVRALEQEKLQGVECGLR
Kind of data set: SelectScreen kinase assay. The class given is biochemical. The settings on record: KM ATP, read-out: % control.

The target in another data set is T3, LRRK2 G2019S_h (Homo sapiens, UniProt Q5S007, G2019S).
T3 construct: purchased Life Technologies (Invitrogen) SelectScreen, Z'-LYTE / Adapta
T3 sequence (Q5S007 whole entry G2019S): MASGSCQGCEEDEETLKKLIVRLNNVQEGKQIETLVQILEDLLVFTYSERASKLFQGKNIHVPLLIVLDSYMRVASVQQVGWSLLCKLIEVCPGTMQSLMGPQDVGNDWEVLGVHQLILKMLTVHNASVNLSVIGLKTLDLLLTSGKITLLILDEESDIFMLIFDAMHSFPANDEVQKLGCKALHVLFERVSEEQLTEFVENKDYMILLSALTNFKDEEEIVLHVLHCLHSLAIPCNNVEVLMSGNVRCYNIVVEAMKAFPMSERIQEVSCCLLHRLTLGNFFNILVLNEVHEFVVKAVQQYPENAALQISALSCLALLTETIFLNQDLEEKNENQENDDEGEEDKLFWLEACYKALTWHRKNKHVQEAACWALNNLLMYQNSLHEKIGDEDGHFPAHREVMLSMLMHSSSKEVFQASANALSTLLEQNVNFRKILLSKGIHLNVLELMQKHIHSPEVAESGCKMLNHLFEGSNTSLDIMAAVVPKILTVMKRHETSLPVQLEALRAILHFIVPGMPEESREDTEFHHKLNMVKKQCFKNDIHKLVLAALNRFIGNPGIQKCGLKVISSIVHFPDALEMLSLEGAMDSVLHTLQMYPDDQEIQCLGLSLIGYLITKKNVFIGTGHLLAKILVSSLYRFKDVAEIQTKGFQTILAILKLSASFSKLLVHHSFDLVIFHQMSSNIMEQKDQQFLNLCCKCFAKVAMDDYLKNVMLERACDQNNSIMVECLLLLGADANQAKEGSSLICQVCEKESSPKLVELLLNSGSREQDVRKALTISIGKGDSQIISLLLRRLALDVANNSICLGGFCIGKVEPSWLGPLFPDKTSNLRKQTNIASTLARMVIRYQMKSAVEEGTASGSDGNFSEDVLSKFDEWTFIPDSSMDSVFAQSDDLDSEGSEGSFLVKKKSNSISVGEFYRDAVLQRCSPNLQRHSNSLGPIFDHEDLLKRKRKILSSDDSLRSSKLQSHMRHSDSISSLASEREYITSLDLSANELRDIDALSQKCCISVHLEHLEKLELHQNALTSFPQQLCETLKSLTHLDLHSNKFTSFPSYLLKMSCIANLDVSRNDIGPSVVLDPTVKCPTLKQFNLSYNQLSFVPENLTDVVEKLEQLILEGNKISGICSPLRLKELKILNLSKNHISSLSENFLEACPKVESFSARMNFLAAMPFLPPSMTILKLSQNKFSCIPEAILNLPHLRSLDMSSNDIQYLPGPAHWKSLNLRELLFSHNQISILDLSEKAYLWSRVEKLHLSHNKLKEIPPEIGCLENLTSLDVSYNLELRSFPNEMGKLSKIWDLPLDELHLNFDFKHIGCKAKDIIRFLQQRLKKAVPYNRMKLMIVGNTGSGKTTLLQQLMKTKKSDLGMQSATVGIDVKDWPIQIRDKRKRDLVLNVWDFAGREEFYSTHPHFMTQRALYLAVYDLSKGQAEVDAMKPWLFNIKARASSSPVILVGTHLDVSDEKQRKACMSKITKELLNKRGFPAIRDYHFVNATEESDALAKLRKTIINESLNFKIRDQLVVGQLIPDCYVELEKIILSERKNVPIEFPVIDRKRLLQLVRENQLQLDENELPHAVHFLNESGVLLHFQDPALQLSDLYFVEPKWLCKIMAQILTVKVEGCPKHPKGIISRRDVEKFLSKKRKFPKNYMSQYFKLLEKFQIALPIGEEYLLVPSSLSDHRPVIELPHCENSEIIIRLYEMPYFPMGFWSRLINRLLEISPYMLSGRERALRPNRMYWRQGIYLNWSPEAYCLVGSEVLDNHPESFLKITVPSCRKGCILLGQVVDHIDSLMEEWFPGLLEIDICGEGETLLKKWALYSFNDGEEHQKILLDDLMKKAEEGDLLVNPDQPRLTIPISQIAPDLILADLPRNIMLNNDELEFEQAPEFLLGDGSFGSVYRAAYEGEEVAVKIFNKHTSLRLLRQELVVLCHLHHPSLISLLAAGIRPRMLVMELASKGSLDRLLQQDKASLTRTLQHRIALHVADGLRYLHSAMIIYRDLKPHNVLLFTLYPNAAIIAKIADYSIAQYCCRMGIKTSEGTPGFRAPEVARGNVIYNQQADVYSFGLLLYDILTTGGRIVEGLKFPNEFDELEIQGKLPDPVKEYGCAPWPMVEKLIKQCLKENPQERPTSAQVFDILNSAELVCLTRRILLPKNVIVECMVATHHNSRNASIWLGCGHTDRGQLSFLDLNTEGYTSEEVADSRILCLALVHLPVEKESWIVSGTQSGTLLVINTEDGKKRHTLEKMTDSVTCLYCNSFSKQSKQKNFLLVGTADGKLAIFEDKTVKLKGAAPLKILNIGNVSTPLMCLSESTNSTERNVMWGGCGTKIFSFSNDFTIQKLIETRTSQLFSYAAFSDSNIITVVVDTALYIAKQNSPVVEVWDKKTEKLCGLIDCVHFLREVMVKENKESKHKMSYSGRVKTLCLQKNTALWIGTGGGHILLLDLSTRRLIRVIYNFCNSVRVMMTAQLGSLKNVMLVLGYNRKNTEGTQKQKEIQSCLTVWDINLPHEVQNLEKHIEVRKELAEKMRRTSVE
As to the kind of experiment: SelectScreen kinase assay. As to conditions: KM ATP, read-out: % control. The class given is biochemical.

Another data set deals with T4, Ret_V804L_h (Homo sapiens, UniProt P07949, V804L).
T4 construct: purchased Life Technologies (Invitrogen) SelectScreen, Z'-LYTE / Adapta
Kind of data set: SelectScreen kinase assay. The data set is classed as biochemical. As to conditions: KM ATP, read-out: % control.

The target of another data set is T5, FGFR4_h (Homo sapiens, UniProt P22455).
T5 construct: purchased Life Technologies (Invitrogen) SelectScreen, Z'-LYTE / Adapta
T5 sequence (P22455 22-802): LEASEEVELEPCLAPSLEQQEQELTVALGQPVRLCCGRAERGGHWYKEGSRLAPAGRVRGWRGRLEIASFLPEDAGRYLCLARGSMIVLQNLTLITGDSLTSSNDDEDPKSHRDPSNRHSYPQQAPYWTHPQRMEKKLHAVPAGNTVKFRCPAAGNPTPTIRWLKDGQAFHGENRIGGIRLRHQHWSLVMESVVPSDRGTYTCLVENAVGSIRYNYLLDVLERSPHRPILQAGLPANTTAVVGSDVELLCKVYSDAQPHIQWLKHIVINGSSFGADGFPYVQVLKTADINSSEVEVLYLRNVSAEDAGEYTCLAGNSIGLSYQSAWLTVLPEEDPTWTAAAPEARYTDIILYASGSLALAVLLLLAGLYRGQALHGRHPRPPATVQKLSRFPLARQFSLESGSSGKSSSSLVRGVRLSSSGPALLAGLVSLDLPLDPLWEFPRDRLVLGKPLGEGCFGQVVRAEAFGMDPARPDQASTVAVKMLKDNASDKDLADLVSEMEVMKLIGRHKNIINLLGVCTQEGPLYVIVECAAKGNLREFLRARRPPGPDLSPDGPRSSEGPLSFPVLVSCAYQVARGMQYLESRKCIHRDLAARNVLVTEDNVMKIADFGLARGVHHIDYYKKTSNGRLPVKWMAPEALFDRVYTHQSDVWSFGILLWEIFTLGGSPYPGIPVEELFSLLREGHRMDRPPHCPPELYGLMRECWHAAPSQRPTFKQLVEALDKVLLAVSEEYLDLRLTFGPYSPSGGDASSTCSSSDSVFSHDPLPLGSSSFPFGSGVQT
Kind of data set: SelectScreen kinase assay. The data set is classed as biochemical. The settings on record: KM ATP, read-out: % control.

Another data set concerns the target T6, MEK2_h (Homo sapiens, UniProt P36507).
T6 construct: purchased Life Technologies (Invitrogen) SelectScreen, Z'-LYTE / Adapta
Kind of data set: SelectScreen kinase assay. The data set is classed as biochemical. As to conditions: 100 µM ATP, read-out: % control.

The target of a further data set is Syk (Homo sapiens, UniProt P43405). Kind of data set: Syk kinase mode of inhibition studies (Caliper LC3000). The class given is biochemical. The procedure: Syk kinase mode of inhibition studies, including parameters described in Fig 1, were conducted on the LC3000 platform by Caliper Life Sciences (Hopkinton, MA) according to standard protocols developed by the supplier. […] Non-kinase enzyme assays and GPCR, ion channel, and transporter binding assays were run by CEREP (France). Non-GLP manual patch clamp hERG assays were run by ChanTest (Cleveland, Ohio). Vivid® Assay kits (Life Technologies) were used to measure the cytochrome P450 inhibition of the compound against CYP3A, CYP2C9, CYP2C19, CYP2D6, and CYP1A2, as described.

For data set [3], the system named is rat passive cutaneous anaphylaxis model. The settings on record: 10 mg/kg dose; cited from earlier work.
Data set [4] deals with proinflammatory analytes in paw tissue. The settings on record: cited from earlier work.
The conditions of data set [5]: rat CIA, cited from earlier work.

Read-outs that look alike come from different tables or passages of the source.

T6 sequence (P36507 whole entry): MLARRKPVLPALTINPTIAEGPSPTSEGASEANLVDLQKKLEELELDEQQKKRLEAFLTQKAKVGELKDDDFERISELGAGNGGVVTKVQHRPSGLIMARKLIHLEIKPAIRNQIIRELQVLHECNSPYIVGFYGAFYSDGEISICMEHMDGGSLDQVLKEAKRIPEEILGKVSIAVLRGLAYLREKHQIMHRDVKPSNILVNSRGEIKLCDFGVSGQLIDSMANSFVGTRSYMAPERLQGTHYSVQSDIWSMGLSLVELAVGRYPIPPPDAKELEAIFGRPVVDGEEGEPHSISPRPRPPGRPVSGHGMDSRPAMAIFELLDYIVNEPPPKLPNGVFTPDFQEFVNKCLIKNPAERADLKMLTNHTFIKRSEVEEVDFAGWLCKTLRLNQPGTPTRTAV

`c1cc(CC2CCOCC2)n2nc(Nc3ccc4c(NC5CCOCC5)n[nH]c4c3)nc2c1` [CC-509, [3-(2H-3,4,5,6-tetrahydropyran-4-ylamino)(1H-indazol-6-yl)][5-(2H-3,4,5,6-tetrahydropyran-4-ylmethyl)(2H-1,2,4-triazolo[1,5-a]pyridin-2-yl)]amine]: it took 1610 ± 410 nM to reach half-maximal inhibition in data set [1] (IC50). Also, the remaining activity at 3 µM on cSRC_h is 67%; at ZIPK_h it was 96%; at LRRK2 G2019S_h, 4%; at Ret_V804L_h, 22%; on FGFR4_h, 68%; on MEK2_h, 73%. Besides, in [2] (day 18), the “other proinflammatory analytes in the paw (IL-1β, IL-6, CRP)” value was “No other significant effects”. Moreover, the “MCP-1 in the paw” value in data set [2] (day 18, 15 mg/kg q.d. and b.i.d. groups, p<0.01) is recorded as “significantly reduced”. The “RANTES in the paw” value in [2] (day 18, all CC-509 dose levels, p<0.001) is “significantly reduced”. The “KC in the paw” value in data set [2] (day 18, only in the 15 mg/kg b.i.d. group, p<0.05) is recorded as “reduced”. Further, the “MIP-1α in the paw” value in [2] (day 18, CC-509 all dose levels p<0.01, indomethacin p<0.05) is “significantly reduced”. At Syk, this compound yielded an inhibitory constant (Ki) of 18 nM. In addition, the “mode of inhibition with respect to the Syk ATP binding site” value on Syk (based on enzyme kinetics) is “mixed competitive inhibitor”.

In the case of `COc1cc(Nc2ncc(F)c(Nc3ccc4c(n3)NC(=O)C(C)(C)O4)n2)cc(OC)c1OC` [R406, reference compound], the “effect in the PCA model” value in [3] was “statistically significant effect”. For the same compound, the “expression of MCP-1, KC, IL-6 and IL-1β in the CIA model” value in data set [4] is “inhibited”. Further, the “exposure following a single dose” value in data set [5] (10 mg/kg b.i.d.) was 15 µM·h; in data set [5] (30 mg/kg b.i.d.), 38 µM·h.

What is called IC50 is the midpoint of a concentration-inhibition curve. Higher therefore signals a need for much substance. As a reminder, the Ki is the equilibrium dissociation constant of an inhibitor or competing ligand from its target. The low end stands for a stronger hold on the target, the high end for a looser hold on the target.
